Experimental findings from patent publication US11999732B2, “P2X3 receptor antagonists” (RECORDATI INDUSTRIA CHIMICA E FARMACEUTICA SPA, priority 2018, dated 2024) are described below.

One assay has as its target T1, human P2X3 receptor (Homo sapiens, UniProt P56373).
T1 construct: expressed in transfected cells; host or cells: CHO-K1
T1 sequence (P56373 1-397): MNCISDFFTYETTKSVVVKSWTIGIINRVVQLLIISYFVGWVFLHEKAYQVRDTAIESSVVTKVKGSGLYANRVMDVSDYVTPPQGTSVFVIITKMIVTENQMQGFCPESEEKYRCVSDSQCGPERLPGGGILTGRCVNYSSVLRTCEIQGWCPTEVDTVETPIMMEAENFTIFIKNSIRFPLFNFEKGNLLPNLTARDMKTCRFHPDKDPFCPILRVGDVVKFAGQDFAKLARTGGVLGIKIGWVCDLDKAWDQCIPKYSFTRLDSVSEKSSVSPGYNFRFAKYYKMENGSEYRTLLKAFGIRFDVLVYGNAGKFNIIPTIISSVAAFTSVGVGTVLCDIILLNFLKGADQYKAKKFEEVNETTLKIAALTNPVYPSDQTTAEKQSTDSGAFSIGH
Nature of the assay: Calcium luminescence (photoprotein) assay in CHO-K1 cells co-expressing human P2X3 receptor, α,β-Met-ATP stimulation, FLEXSTATION readout. The class given is cell-based. To be noted: Table 6; human P2X3 receptor antagonist activity, CHO-K1 cells, α,β-Met-ATP; read-out: h-P2X3 IC50. Put shortly:
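CHO-K1 cells co-expressing human P2X3 and a Ca2+-sensitive photoprotein, loaded with coelenterazine in Tyrode's buffer (pH 7.4) for 4 h at 37 °C. Compounds injected 4 min before α,β-Met-ATP stimulation; luminescence recorded, IC50 and pseudo-Hill slope from nonlinear regression of inhibition curves.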
Turning to `COc1cc(CN2C(=O)N3CC(C(C)C)N=C3c3ncc(C(=O)N4CCOCC4)cc32)cc(OC)c1` (stereo not shown) [Example 60, 6-(3,5-dimethoxybenzyl)-8-(morpholin-4-ylcarbonyl)-2-(propan-2-yl)-2,6-dihydroimidazo[1,2-c]pyrido[2,3-e]pyrimidin-5(3H)-one], the IC50 worked out at 1100 nM.
Regarding `CCC1CN2C(=O)N(Cc3ccc(OC)cc3)c3cc(N4CCOCC4)cnc3C2=N1` (stereo not shown) [Example 52, 2-ethyl-6-(4-methoxybenzyl)-8-(morpholin-4-y1)-2,6-dihydroimidazo[1,2-c]pyrido[2,3-e]pyrimidin-5(3H)-one], the IC50 amounted to 1250 nM.
Same read-out and setting: to `CC(C)CCC1CN=C2c3ncc(N4CCOCC4)cc3N(Cc3ccc(Cl)cc3)C(=O)N21` (stereo not shown) [Example 63, 6-(4-chlorobenzyl)-3-(3-methylbutyl)-8-(morpholin-4-yl)-2,6-dihydroimidazo[1,2-c]pyrido[2,3-e]pyrimidin-5(3H)-one] belongs 299 nM; to `CC(C)(C)C1C(=O)N=C2c3ncc(N4CCOCC4)cc3N(Cc3ccc(Cl)cc3)C(=O)N21` (stereo not shown) [Example 68, 3-tert-butyl-6-(4-chlorobenzyl)-8-(morpholin-4-yl)imidazo[1,2-c]pyrido[2,3-e]pyrimidine-2,5(3H,6H)-dione], 109 nM; to `O=C(C1CN2C(=O)N(Cc3ccc(Cl)cc3)c3cc(N4CCOCC4)cnc3C2=N1)N1CCOCC1` (stereo not shown) [Example 54, 6-(4-chlorobenzyl)-8-(morpholin-4-yl)-2-(morpholin-4-ylcarbonyl)-2,6-dihydroimidazo[1,2-c]pyrido[2,3-e]pyrimidin-5(3H)-one], 1700 nM.
On to `COc1ccc(CN2C(=O)N3CC(C(C)C)N=C3c3ncc(N4CC5(COC5)C4)cc32)cc1` (stereo not shown) [Example 19, 6-(4-methoxybenzyl)-8-(2-oxa-6-azaspiro[3.3]heptan-6-yl)-2-(propan-2-yl)-2,6-dihydroimidazo[1,2-c]pyrido[2,3-e]pyrimidin-5(3H)-one], for which the IC50 came out at 5510 nM.
With `CC(C)CC1C(=O)N=C2c3ncc(N4CCOCC4)cc3N(Cc3ccc(Cl)cc3)C(=O)N21` (stereo not shown) [Example 64, 6-(4-chlorobenzyl)-3-(2-methylpropyl)-8-(morpholin-4-yl)imidazo[1,2-c]pyrido[2,3-e]pyrimidine-2,5(3H,6H)-dione], the IC50 was 109 nM.
On the same count and under the same terms, to `COc1ccc(CN2C(=O)N3C(=NCC3C(C)C)c3ncc(N4CCOCC4)cc32)cc1` (stereo not shown) [Example 1, 6-(4-methoxybenzyl)-8-(morpholin-4-yl)-3-(propan-2-yl)-2,6-dihydroimidazo[1,2-c]pyrido[2,3-e]pyrimidin-5(3H)-one] belongs 5220 nM; to `COc1ccc(CN2C(=O)N3C(=NCC3c3ccccc3)c3ncc(N4CCOCC4)cc32)cc1` (stereo not shown) [Example 29, 6-(4-methoxybenzyl)-8-(morpholin-4-yl)-3-phenyl-2,6-dihydroimidazo[1,2-c]pyrido[2,3-e]pyrimidin-5(3H)-one], 368 nM.

Staying with this assay, now noted: Table 7; human P2X3 receptor antagonist activity, CHO-K1 cells, α,β-Met-ATP; read-out: h-P2X3 IC50.
With `CCc1c(C)nc2c3ncc(NCC4COC4)cc3n(Cc3cc(OC)cc(OC)c3)c(=O)n12` [Example 77, 6-(3,5-dimethoxybenzyl)-3-ethyl-2-methyl-8-{[(oxetan-3-yl)methyl]amino}imidazo[1,2-c]pyrido[2,3-e]pyrimidin-5(6H)-one], the IC50 is 239 nM.
Regarding `COCC1CN(c2cnc3c(c2)n(Cc2cc(OC)cc(OC)c2)c(=O)n2c(C)c(C(C)C)nc32)C1` [Example 88, 6-(3,5-dimethoxybenzyl)-8-[3-(methoxymethyl)azetidin-1-y1]-3-methyl-2-(propan-2-yl)imidazo[1,2-c]pyrido[2,3-e]pyrimidin-5(6H)-one], the IC50 was 53.6 nM.

The same assay, now with this note: Table 8; human P2X3 receptor antagonist activity, CHO-K1 cells, α,β-Met-ATP; read-out: h-P2X3 IC50.
For `CC(c1nnc2c3ncc(N4CCOCC4)cc3c(Cc3ccc(Cl)cc3)nn12)C1CCOCC1` (stereo not shown) [Example 132, 6-(4-chlorobenzyl)-8-(morpholin-4-yl)-3-[1-(tetrahydro-2H-pyran-4-yl)ethyl]pyrido[2,3-d][1,2,4]triazolo[4,3-b]pyridazine], the IC50 came out at 19.1 nM.
With `COc1cc(Cc2nn3c(COC(C)C)nnc3c3ncc(N4CCOCC4)cc23)cc(OC)c1` [Example 119, 6-(3,5-dimethoxybenzyl)-8-(morpholin-4-yl)-3-[(propan-2-yloxy)methyl]pyrido[2,3-d][1,2,4]triazolo[4,3-b]pyridazine], the IC50 worked out at 1210 nM.
With `CC(C)(C)OC(=O)NC1CCN(c2cnc3c(c2)c(Cc2ccc(Cl)cc2)nn2c(C(C)(C)C)nnc32)CC1` [Example 138, tert-butyl n-[1-[5-tert-butyl-8-(4-chlorobenzyl)-3,4,6,7,13-pentazatricyclo[7.4.0.02,6]trideca-1(9),2,4,7,10,12-hexaen-11-yl]-4-piperidyl]carbamate], the IC50 came to 3340 nM.

The assay is the same for the next values; noted with them: Table 9; human P2X3 receptor antagonist activity, CHO-K1 cells, α,β-Met-ATP; read-out: h-P2X3 IC50.
On to `COc1ccc(Cn2c(=O)n3c(C4(C)CC4)nnc3c3ncc(N4CCOCC4)cc32)cc1` [Example 174, 6-(4-methoxybenzyl)-3-(1-methylcyclopropyl)-8-(morpholin-4-yl)pyrido[2,3-e][1,2,4]triazolo[4,3-c]pyrimidin-5(6H)-one], for which the IC50 was 78.5 nM.
As for `COc1cc(CN2C(=O)N3CC(C)(C)N=C3c3ncc(N4CCOCC4)cc32)cc(OC)c1` [Example 161, 6-(3,5-dimethoxybenzyl)-2,2-dimethyl-8-(morpholin-4-yl)-2,6-dihydroimidazo[1,2-c]pyrido[2,3-e]pyrimidin-5(3H)-one], the IC50 turned out to be 4290 nM.
With `CCC1CCN=C2c3ncc(N4CCOCC4)cc3N(Cc3ccc(Cl)cc3)C(=O)N21` (stereo not shown) [Example 155, 5-(4-chlorobenzyl)-8-ethyl-3-(morpholin-4-yl)-5,8,9,10-tetrahydro-6H-pyrido[2,3-e]pyrimido[1,2-c]pyrimidin-6-one], the IC50 is 2170 nM.
The same measure, in the same setting: the result for `COc1cc(CN2C(=O)N3CC(C)(C)CN=C3c3ncc(N4CCOCC4)cc32)cc(OC)c1` [Example 147, 5-(3,5-dimethoxybenzyl)-9,9-dimethyl-3-(morpholin-4-yl)-5,8,9,10-tetrahydro-6H-pyrido[2,3-e]pyrimido[1,2-c]pyrimidin-6-one] reads 2440 nM.
Same read-out and setting: the result for `CC(C)(C)c1nnc2c3ncc(N4CCOCC4)cc3n(Cc3ccc(Cl)cn3)c(=O)n12` [Example 173, 3-tert-butyl-6-[(5-chloropyridin-2-yl)methyl]-8-(morpholin-4-yl)pyrido[2,3-e][1,2,4]triazolo[4,3-c]pyrimidin-5(6H)-one] reads 2.59 nM; that for `COc1ccc(Cn2c(=O)n3nc(C(C)(C)C)nc3c3ncc(N4CCOCC4)cc32)cc1` [Example 157, 2-tert-butyl-6-(4-methoxybenzyl)-8-(morpholin-4-yl)pyrido[2,3-e][1,2,4]triazolo[1,5-c]pyrimidin-5(6H)-one], 495 nM.
On the same count and under the same terms, the result for `COc1cc(CN2C(=O)N3CC(C)CN=C3c3ncc(N4CCOCC4)cc32)cc(OC)c1` (stereo not shown) [Example 145, 5-(3,5-dimethoxybenzyl)-9-methyl-3-(morpholin-4-yl)-5,8,9,10-tetrahydro-6H-pyrido[2,3-e]pyrimido[1,2-c]pyrimidin-6-one] reads 1780 nM.

Staying with this assay, now noted: running text b1263; read-out: inhibition (human P2X3 receptor).
As for `CC1(c2nnc3c4ncc(N5CCOCC5)cc4n(Cc4ccc(Cl)cc4)c(=O)n23)CC1` [Example 102, 6-(4-chlorobenzyl)-3-(1-methylcyclopropyl)-8-(morpholin-4-yl)pyrido[2,3-e][1,2,4]triazolo[4,3-c]pyrimidin-5(6H)-one], the IC50 worked out at 25.5 nM.
